Assay results taken from US20240091185A1, “COMPOSITION FOR IMPROVING COGNITIVE FUNCTION, AGENT FOR IMPROVING COGNITIVE FUNCTION, AND FOOD FOR IMPROVING COGNITIVE FUNCTION” (AJINOMOTO CO., INC., priority 2021, published 2024).

Legend:
Format in all cases: in vivo, mouse
[1] = test system: learning and/or memory functions of C57Bl/6j mice (LPS-induced learning and/or memory disorder model); assay: Novel object recognition test in LPS-induced learning and/or memory disorder model (Experimental Example 1); conditions: 3 g/kg body weight oral once a day for 13 days; LPS 250 μg/kg i.p. day 4 to 10; Tukey; Example 1 p<0.05
Procedure: To the control LPS group was orally administered 10 mL of distilled water per kg of mouse body weight once a day for 13 consecutive days.
The agent of Comparative Example 2 was suspended in distilled water at a concentration of 0.3 g/mL, and 10 mL (3 g/kg body weight) was orally administered per kg of mouse body weight once a day for 13 consecutive days to the group to be administered with the agent of Comparative Example 2 (LPS+Gly3). […]
During the training trial, the ratio (%) of the time of contact with object A1 or A2 with a shorter contact time to the total time of contact with the two objects (A1 and A2) placed in the experimental arena was calculated.
During the retention trial, the ratio (%) of the time of contact with object B to the total time of contact with the two objects (A1 and B, or A2 and B) placed in the experimental arena was determined. […]

[2] = test system: Family with sequence similarity 107 member a (Fam107a) gene; assay: Hippocampal gene expression level by RNA-seq (TPM), Fam107a; conditions: oral once a day for 13 days (Example 1 3 g/kg, Comp. Ex. 4 2 g/kg, Comp. Ex. 5 1 g/kg); Dunnett; p<0.05 for Example 1
Procedure: (§1) At that time, as comparison samples, 2 g of glycine was used as the agent of Comparative Example 4, and 1 g of L-serine was used as the agent of Comparative Example 5, and the action on gene expression in the mouse hippocampus was similarly examined.
(§2) The agent of Comparative Example 4 was suspended in 0.5 wt % methylcellulose aqueous solution at a concentration of 0.2 g/mL, and 10 mL (2 g/kg body weight) was orally administered per kg of mouse body weight once a day for 13 consecutive days to the group to be administered with the agent of Comparative Example 4 (LPS+Gly2).
as §2, with “5” for “4”, “0.1” for “0.2”, “(1” for “(2”, “5 (LPS+L-Ser1).” for “4 (LPS+Gly2).”
(§3) Hippocampal tissue was collected from each group of mice that had been administered with each suspension or vehicle shown in Table 5 for 13 consecutive days, total RNA was extracted from each individual separately, and RNA sequencing (RNA-seq) was performed. […] Samples from individuals suspected of being contaminated at the time of tissue collection were excluded from analysis.

[3] = test system: Sonic hedgehog (Shh) gene; assay: Hippocampal gene expression level by RNA-seq (TPM), Shh; conditions: oral once a day for 13 days (Example 1 3 g/kg, Comp. Ex. 4 2 g/kg, Comp. Ex. 5 1 g/kg); Dunnett; p<0.05 for Example 1
Procedure: as §1, §2
as §2, with “5” for “4”, “0.1” for “0.2”, “(1” for “(2”, “5 (LPS+L-Ser1).” for “4 (LPS+Gly2).”
as §3

[4] = test system: Galanin and GMAP prepropeptide (Gal) gene; assay: Hippocampal gene expression level by RNA-seq (TPM), Gal; conditions: oral once a day for 13 days (Example 1 3 g/kg, Comp. Ex. 4 2 g/kg, Comp. Ex. 5 1 g/kg); Dunnett; p<0.05 for Example 1
Procedure: as §1, §2
as §2, with “5” for “4”, “0.1” for “0.2”, “(1” for “(2”, “5 (LPS+L-Ser1).” for “4 (LPS+Gly2).”
as §3

[5] = test system: D-site of albumin promoter (albumin D-box) binding protein (Dbp) gene; assay: Hippocampal gene expression level by RNA-seq (TPM), Dbp; conditions: oral once a day for 13 days (Example 1 3 g/kg, Comp. Ex. 4 2 g/kg, Comp. Ex. 5 1 g/kg); Dunnett; p<0.05 for Example 1
Procedure: as §1, §2
as §2, with “5” for “4”, “0.1” for “0.2”, “(1” for “(2”, “5 (LPS+L-Ser1).” for “4 (LPS+Gly2).”
as §3

[6] = test system: Thyroid stimulating hormone receptor (TShr) gene; assay: Hippocampal gene expression level by RNA-seq (TPM), Tshr; conditions: oral once a day for 13 days (Example 1 3 g/kg, Comp. Ex. 4 2 g/kg, Comp. Ex. 5 1 g/kg); Dunnett; p<0.05 for Example 1
Procedure: as §1, §2
as §2, with “5” for “4”, “0.1” for “0.2”, “(1” for “(2”, “5 (LPS+L-Ser1).” for “4 (LPS+Gly2).”
as §3

SMILES | RI value (%) during the retention trial, compared with the group orally administered with distilled water (LPS) [1] | expression of the Fam107a gene in hippocampus vs solvent alone (LPS) [2] | expression of the Shh gene in hippocampus vs solvent alone (LPS) [3] | expression of the Gal gene in hippocampus vs solvent alone (LPS) [4] | expression of the Dbp gene in hippocampus vs solvent alone (LPS) [5] | expression of the Tshr gene in hippocampus vs solvent alone (LPS) [6]
NCC(=O)O [Comparative Example 2, glycine] | significant difference was not observed | – | – | – | – | –
NCC(=O)O [Comparative Example 4, glycine] | – | significant changes in the expression levels of genes were not observed | significant changes in the expression levels of genes were not observed | significant changes in the expression levels of genes were not observed | significant changes in the expression levels of genes were not observed | significant changes in the expression levels of genes were not observed
N[C@@H](CO)C(=O)O [Comparative Example 5, L-serine] | – | significant changes in the expression levels of genes were not observed | significant changes in the expression levels of genes were not observed | significant changes in the expression levels of genes were not observed | significant changes in the expression levels of genes were not observed | significant changes in the expression levels of genes were not observed
